{"source": "patent US7112339B1", "about": "“Compositions for controlled release of a biologically active agent, and the preparation thereof” (DelSiTech Oy, priority 1999, dated 2006)", "test_system": "Factor Xa", "assay": "Factor Xa assay (HEPRN) of heparin biological activity", "format": "biochemical", "protocol": "The silica sol loaded with heparin was prepared by a two step sol-gel process using acid as a catalyst (Ellerby et al. 1992). The following reagents were used, tetraethoxysilane (TEOS) (Aldrich), deionized water, nitric acid (HNO3) (Merck), acetic acid (CH3COOH) (Merck), ammonium hydroxide (NH4OH) (Merck)) and heparin sodium salt (Orion Corporation, Finland). The biological activity of the used heparin was 84 IU/mg measured by Factor Xa assay (HEPRN). The first step of the reaction series was a hydrolysis reaction between water and alkoxide. The mol ratio of the silica sol was TEOS:H2O:HNO3=1:15:0.0015 and TEOS:H2O:CH3COOH=1:15:0.026, respectively. Modification of the nitric acid catalyzed sol was carried out by co-hydrolysis of TEOS with the following organomodified (i.e. alkylsubstituted) alkoxysilanes: dimethyldiethoxysilane Me2Si(OEt)2 (DMDES) (Lancaster), methyltriethoxysilane MeSi(OEt)3(METES) (Aldrich) or ethyltriethoxysilane EtSi(OEt)3 (ETES) (Lancaster). For the partial substitution of TEOS, 10 or 25 mol-% organomodified alkoxysilane was used. After the first step, i.e. hydrolysis reaction, pH was raised to 4.54.8 with base (0.1 or 1 M NH4OH) before heparin addition. […] The concentration of heparin in silica sol ranged from 1 wt % to 4 wt % calculated on the sol, corresponding to 6.8–29.2 wt % in the air dried silica xerogel. […]", "data": [{"substance": "heparin", "values": [{"measurement": "biological activity of the used heparin", "value": 84, "unit": "IU/mg"}]}]}
